Experiment [1] concerns the target T1, CCDC6-RET-BaF3 (Homo sapiens, UniProt P07949).
T1 construct: fused on or other part: Q16204 (Coiled-coil domain-containing protein 6)
The experiment is described as follows: Growth inhibition of CCDC6-RET-BaF3 cells stably transfected with kinase (MTS). In kind it is cell-based. The settings on record: 48 h, read-out: CCDC6-RET (IC50/nM). As for the experimental part: (§1) Growth inhibitory activity of compounds on cell lines stably transfected with kinase
(§2) The activity of compounds against kinase RET is evaluated by their effect of inhibiting growth of cell lines stably transfected with kinase CCDC6-RET-BaF3, KIF5B-RET-BaF3, and wild-type BaF3 (Proc. Natl. Acad. Sci. USA., 2006, 103, 3153-8.). The growth of the cell lines stably transfected with kinase CCDC6-RET-BaF3, KIF5B-RET-BaF3 depends on their kinase activity. If a compound can inhibit the activity of the kinase RET per se or the activity of the RET signaling pathway, the compound can inhibit the growth of BaF3 cells stably transfected with kinase. […] Therefore, a larger ratio between IC50 of a compound to wild-type BaF3 and IC50 of the compound to the cell lines stably transfected with kinase CCDC6-RET-BaF3, KIF5B-RET-BaF3 indicates better targeting.
(§3) The specific test method is given as follows:
(§4) 1) Medium: DMEM (Dulbecco's modified eagle medium) or RPMI 1640 (containing 10% fetal bovine serum, 100 μg/mL ampicillin, 100 μg/mL streptomycin).
(§5) 2) Reagents: MTS reaction solution (containing 2 mg/mL of MTS [3-(4,5-dimethylthiazol-2-yl)-5-(3-carboxymethoxyphenyl)-2-(4-sulfophenyl)-2H-tetrazolium, inner Salt]; 100 μg/mL PES (phenazine […])).
(§6) 3) Compound test: cells stably transfected with kinase (CCDC6-RET-BaF3, KIF5B-RET-BaF3) or wild-type BaF3 cells (2×10^4 cells/well) were incubated into a 96-well culture plate, the volume of cell culture fluid was 90 μL, and then 10 μL of the compound at each gradient concentration was added (the highest concentration was 10 μM, which was diluted stepwise by ⅓, and 8 concentration points were set in total; the system contained 0.1% DMSO (dimethyl sulfoxide)). The cell plate with uniformly mixed compound was cultured in a cell culture incubator (37° C.; 5% CO2) for 48 h, then 20 μL of MTS reaction solution was added, uniformly mixed and incubated in the cell culture incubator (37° C.; 5% CO2) for 1-4 hr, OD values at 490 nm were measured by a microplate reader (VARIOSKAN FLASH, Thermo). Three parallels were set in each group of experiments, with 0.1% (a final concentration) DMSO as a negative control, and a medium without cells or compounds as a blank control. The cell growth inhibition rate was calculated by the following formula: Cell growth inhibition rate %=1−(ODexperimental group−ODblank group)/(ODnegative group−ODblank group)×100%
(§7) 4) IC50 calculation: The semi-inhibitory concentration of the compound acting on cell growth was calculated using GradPad Prism 5 software according to the measured cell growth inhibition rate.

Experiment [2] concerns the target T2, KIF5B-RET-BaF3 (Homo sapiens, UniProt P07949).
T2 construct: fused on or other part: P33176 (Kinesin-1 heavy chain)
The experiment is described as follows: Growth inhibition of KIF5B-RET-BaF3 cells stably transfected with kinase (MTS). Type of experiment: cell-based. The settings on record: 48 h, read-out: KIF5B-RET (IC50/nM). How it is done: as §1, §2, §3, §4, §5, §6, §7

T2 sequence (P07949 whole entry, change not shown, the tested form may be a part): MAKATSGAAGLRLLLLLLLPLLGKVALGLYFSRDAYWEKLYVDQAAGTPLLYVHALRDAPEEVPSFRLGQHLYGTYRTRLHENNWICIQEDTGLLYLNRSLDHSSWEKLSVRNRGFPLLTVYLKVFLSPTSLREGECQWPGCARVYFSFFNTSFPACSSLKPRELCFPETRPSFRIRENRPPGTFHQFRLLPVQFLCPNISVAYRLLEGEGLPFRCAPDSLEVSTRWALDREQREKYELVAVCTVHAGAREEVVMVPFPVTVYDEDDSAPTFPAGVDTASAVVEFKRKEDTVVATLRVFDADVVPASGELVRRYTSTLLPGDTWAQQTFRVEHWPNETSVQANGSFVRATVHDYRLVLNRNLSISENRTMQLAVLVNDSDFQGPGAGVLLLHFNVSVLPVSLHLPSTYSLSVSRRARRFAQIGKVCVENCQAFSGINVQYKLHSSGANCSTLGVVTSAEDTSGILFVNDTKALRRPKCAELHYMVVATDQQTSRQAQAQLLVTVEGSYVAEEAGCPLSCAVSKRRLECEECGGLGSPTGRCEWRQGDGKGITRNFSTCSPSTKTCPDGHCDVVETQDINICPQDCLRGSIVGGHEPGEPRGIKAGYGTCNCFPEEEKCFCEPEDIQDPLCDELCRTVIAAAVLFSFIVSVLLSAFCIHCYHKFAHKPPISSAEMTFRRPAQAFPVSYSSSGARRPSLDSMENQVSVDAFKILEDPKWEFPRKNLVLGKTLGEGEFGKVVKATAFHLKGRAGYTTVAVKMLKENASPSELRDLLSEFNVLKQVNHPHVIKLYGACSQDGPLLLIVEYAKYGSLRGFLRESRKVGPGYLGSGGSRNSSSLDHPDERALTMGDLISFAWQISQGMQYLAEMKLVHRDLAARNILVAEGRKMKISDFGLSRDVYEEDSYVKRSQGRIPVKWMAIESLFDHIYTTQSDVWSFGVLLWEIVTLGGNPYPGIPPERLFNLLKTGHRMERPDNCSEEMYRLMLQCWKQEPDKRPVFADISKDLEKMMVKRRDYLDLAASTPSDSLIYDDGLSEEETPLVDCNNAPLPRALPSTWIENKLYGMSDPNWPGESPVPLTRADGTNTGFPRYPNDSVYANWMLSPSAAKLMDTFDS
T1 sequence (P07949 whole entry, change not shown, the tested form may be a part): as above

For `Cc1ccc(NC(=O)c2ccc(CN3CCN(C)CC3)c(C(F)(F)F)c2)cc1Oc1nc(-c2ccncc2)nc2c1cnn2C` [II-i-2], the results for the GI50 in experiment [1] and in experiment [2] were 617 nM and 469 nM, respectively.
`Cc1ccc(NC(=O)c2ccc(CN3CCN(C)CC3)c(C(F)(F)F)c2)cc1Oc1ncnc2c1cnn2C` [II-i-3]: the GI50 worked out at 881 nM in experiment [1] and 1040 nM in experiment [2].
As for `Cc1ccc(Oc2nc(-c3cccnc3)nc3c2cnn3C)cc1NC(=O)c1ccc(CN2CCN(C)CC2)c(C(F)(F)F)c1` [II-j-1], the figures for the GI50 in experiment [1] and in experiment [2] were 4170 nM and 4420 nM, respectively.
Consider `Cc1ccc(Oc2nc(-c3ccoc3)nc3c2cnn3C)cc1NC(=O)c1ccc(CN2CCN(C)CC2)c(C(F)(F)F)c1` [II-j-3], for which the values for the GI50 in experiment [1] and in experiment [2] were 1420 nM and 3210 nM, respectively.
`Cc1ccc(Oc2nc(-c3ccsc3)nc3c2cnn3C)cc1NC(=O)c1ccc(CN2CCN(C)CC2)c(C(F)(F)F)c1` [II-j-4]: the GI50 in experiment [1] amounted to 2070 nM; in experiment [2], 2360 nM.
As for `CN1CCN(Cc2ccc(C(=O)Nc3cc(Oc4nc(-c5cccnc5)nc5c4cnn5C)ccc3Cl)cc2C(F)(F)F)CC1` [II-k-1], the GI50 in experiment [1] came out at 2070 nM; in experiment [2], 1390 nM.
On the same counts, the results for `CN1CCN(Cc2ccc(C(=O)Nc3cc(Oc4nc(-c5ccncc5)nc5c4cnn5C)ccc3Cl)cc2C(F)(F)F)CC1` [II-k-2] are 15.8 nM and 114 nM.
In the case of `Cc1ccc(C(=O)Nc2ccc(CN3CCN(C)CC3)c(C(F)(F)F)c2)cc1Oc1nc(-c2ccncc2)nc2c1cnn2C` [II-m-2], the values for the GI50 in experiment [1] and in experiment [2] were 30.2 nM and 17.8 nM, respectively.
Take `Cc1ccc(C(=O)Nc2ccc(CN3CCN(C)CC3)c(C(F)(F)F)c2)cc1Oc1nc(-c2ccccc2)nc2c1cnn2C` [II-m-3]: the GI50 in experiment [1] turned out to be 348 nM; in experiment [2], 97.7 nM.
The corresponding values for `Cc1ccc(-c2nc(Oc3cc(C(=O)Nc4ccc(CN5CCN(C)CC5)c(C(F)(F)F)c4)ccc3C)c3cnn(C)c3n2)cc1` [II-m-4] are 848 nM and 152 nM.
With `Cc1ccc(C(=O)Nc2ccc(CN3CCN(C)CC3)c(C(F)(F)F)c2)cc1Oc1nc(-c2cccc(Cl)c2)nc2c1cnn2C` [II-m-5], the GI50 was found to be 807 nM in experiment [1] and 320 nM in experiment [2].
Turning to `Cc1ccc(C(=O)Nc2ccc(CN3CCN(C)CC3)c(C(F)(F)F)c2)cc1Oc1nc(-c2ccc(Cl)cc2)nc2c1cnn2C` [II-m-6], the GI50 was found to be 696 nM in experiment [1] and 114 nM in experiment [2].
Turning to `Cc1ccc(C(=O)Nc2ccc(CN3CCN(C)CC3)c(C(F)(F)F)c2)cc1Oc1nc(-c2cccc(O)c2)nc2c1cnn2C` [II-m-7], the GI50 worked out at 178 nM in experiment [1] and 28.3 nM in experiment [2].
The corresponding values for `Cc1ccc(C(=O)Nc2ccc(CN3CCN(C)CC3)c(C(F)(F)F)c2)cc1Oc1nc(-c2ccc(O)cc2)nc2c1cnn2C` [II-m-8] are 166 nM and 56.9 nM.
For `Cc1ccc(C(=O)Nc2ccc(CN3CCN(C)CC3)c(C(F)(F)F)c2)cc1Oc1nc(-c2ccoc2)nc2c1cnn2C` [II-m-9], the GI50 turned out to be 75.1 nM in experiment [1] and 14.6 nM in experiment [2].
Regarding `Cc1ccc(C(=O)Nc2ccc(CN3CCN(C)CC3)c(C(F)(F)F)c2)cc1Oc1nc(-c2ccsc2)nc2c1cnn2C` [II-m-10], the GI50 worked out at 449 nM in experiment [1] and 36.4 nM in experiment [2].
Consider `Cc1ccc(C(=O)Nc2ccc(CN3CCN(C)CC3)c(C(F)(F)F)c2)cc1Oc1nc(Nc2cccnc2)nc2c1cnn2C` [II-m-11], for which the GI50 in experiment [1] stood at 31.8 nM; in experiment [2], 14.9 nM.
Take `Cc1ccc(C(=O)Nc2ccc(CN3CCN(C)CC3)c(C(F)(F)F)c2)cc1Oc1nc(Nc2ccccc2)nc2c1cnn2C` [II-m-12]: the values for the GI50 in experiment [1] and in experiment [2] were 123 nM and 69.7 nM, respectively.
The corresponding values for `Cc1ccc(Nc2nc(Oc3cc(C(=O)Nc4ccc(CN5CCN(C)CC5)c(C(F)(F)F)c4)ccc3C)c3cnn(C)c3n2)cc1` [II-m-13] are 253 nM and 172 nM.
On the same counts, the results for `Cc1ccc(C(=O)Nc2ccc(CN3CCN(C)CC3)c(C(F)(F)F)c2)cc1Oc1nc(NC2CC2)nc2c1cnn2C` [II-m-14] are 9.31 nM and 21.6 nM.
Regarding `Cc1ccc(C(=O)Nc2ccc(CN3CCN(C)CC3)c(C(F)(F)F)c2)cc1Oc1nc(N2CCOCC2)nc2c1cnn2C` [II-m-15], the values for the GI50 in experiment [1] and in experiment [2] were 111 nM and 18 nM, respectively.
`Cc1ccc(C(=O)Nc2ccc(CN3CCN(C)CC3)c(C(F)(F)F)c2)cc1Oc1nc(N2CC(C)OC(C)C2)nc2c1cnn2C` (centres unmarked) [II-m-16]: the values for the GI50 in experiment [1] and in experiment [2] were 384 nM and 84.6 nM, respectively.
With `Cc1ccc(C(=O)Nc2ccc(CN3CCN(C)CC3)c(C(F)(F)F)c2)cc1Oc1nc(N2CCN(C)CC2)nc2c1cnn2C` [II-m-17], the GI50 was determined as 1100 nM in experiment [1] and 160 nM in experiment [2].
Consider `Cc1ccc(C(=O)Nc2ccc(CN3CCN(C)CC3)c(C(F)(F)F)c2)cc1Oc1nc(N(C)C)nc2c1cnn2C` [II-m-18], for which the GI50 in experiment [1] is 257 nM; in experiment [2], 34.3 nM.
For the compound `Cc1ccc(C(=O)Nc2ccc(CN3CCN(C)CC3)c(C(F)(F)F)c2)cc1Oc1ncnc2c1cnn2C` [II-m-19], the GI50 in experiment [1] is 54.9 nM; in experiment [2], 124 nM.
In the case of `Cc1ccc(C(=O)Nc2ccc(CN3CCN(C)CC3)c(C(F)(F)F)c2)cc1Oc1nc(-c2ccncc2)nc2c1cnn2C(C)C` [II-m-23], the GI50 in experiment [1] worked out at 1100 nM; in experiment [2] it was 916 nM.
On to `Cc1ccc(Oc2nc(-c3ccncc3)nc3c2cnn3C)cc1C(=O)Nc1ccc(CN2CCN(C)CC2)c(C(F)(F)F)c1` [II-n-2], for which the GI50 in experiment [1] amounted to 1520 nM; in experiment [2], 440 nM.
On to `CN1CCN(Cc2ccc(NC(=O)c3cc(Oc4nc(-c5cccnc5)nc5c4cnn5C)ccc3Cl)cc2C(F)(F)F)CC1` [II-o-1], for which the GI50 in experiment [1] came out at 4170 nM; in experiment [2], 4020 nM.
As for `CN1CCN(Cc2ccc(NC(=O)c3cc(Oc4nc(-c5ccncc5)nc5c4cnn5C)ccc3Cl)cc2C(F)(F)F)CC1` [II-o-2], the GI50 worked out at 108 nM in experiment [1] and 130 nM in experiment [2].
In the case of `CN1CCN(Cc2cc(NC(=O)c3cccc(Oc4nc(-c5cccnc5)nc5c4cnn5C)c3)cc(C(F)(F)F)c2)CC1` [II-p-1], the GI50 stood at 268 nM in experiment [1] and 251 nM in experiment [2].
For `CN1CCN(Cc2cc(NC(=O)c3cccc(Oc4nc(-c5ccncc5)nc5c4cnn5C)c3)cc(C(F)(F)F)c2)CC1` [II-p-2], the GI50 amounted to 458 nM in experiment [1] and 521 nM in experiment [2].
With `Cc1ccc(C(=O)Nc2cc(CN3CCN(C)CC3)cc(C(F)(F)F)c2)cc1Oc1nc(-c2cccnc2)nc2c1cnn2C` [II-s-1], the GI50 in experiment [1] turned out to be 264 nM; in experiment [2] it was 482 nM.
Take `Cc1ccc(C(=O)Nc2cc(CN3CCN(C)CC3)cc(C(F)(F)F)c2)cc1Oc1nc(-c2ccncc2)nc2c1cnn2C` [II-s-2]: the GI50 amounted to 188 nM in experiment [1] and 355 nM in experiment [2].
In the case of `Cc1cn(-c2cc(NC(=O)c3ccc(C)c(Oc4nc(-c5ccncc5)nc5c4cnn5C)c3)cc(C(F)(F)F)c2)cn1` [II-t-2], the GI50 was determined as 1570 nM in experiment [1] and 2620 nM in experiment [2].
Regarding `Cc1ccc(C(=O)Nc2cc(C(F)(F)F)cc(C(F)(F)F)c2)cc1Oc1nc(-c2cccnc2)nc2c1cnn2C` [II-v-1], the GI50 in experiment [1] was found to be 7230 nM; in experiment [2], 7940 nM.
On the same counts, the results for `CCC(=O)NCC1CCN(c2ccc(NC(=O)c3ccc(C)c(Oc4nc(-c5cccnc5)nc5c4cnn5C)c3)cc2C(F)(F)F)CC1` [II-v-7] are 1200 nM and 1200 nM.
As to `CCC(=O)NC1CCN(c2ccc(NC(=O)c3ccc(C)c(Oc4nc(-c5ccncc5)nc5c4cnn5C)c3)cc2C(F)(F)F)CC1` [II-v-8], the GI50 was determined as 346 nM in experiment [1] and 407 nM in experiment [2].
The corresponding values for `CCC(=O)NCC1CCN(c2ccc(NC(=O)c3ccc(C)c(Oc4nc(-c5ccncc5)nc5c4cnn5C)c3)cc2C(F)(F)F)CC1` [II-v-9] are 961 nM and 934 nM.
Consider `CC(=O)NCC1CCN(c2ccc(NC(=O)c3ccc(C)c(Oc4nc(-c5cccnc5)nc5c4cnn5C)c3)cc2C(F)(F)F)CC1` [II-v-10], for which the GI50 in experiment [1] was determined as 492 nM; in experiment [2], 463 nM.
In the case of `CC(=O)NCC1CCN(c2ccc(NC(=O)c3ccc(C)c(Oc4nc(-c5ccncc5)nc5c4cnn5C)c3)cc2C(F)(F)F)CC1` [II-v-11], the GI50 in experiment [1] came to 546 nM; in experiment [2], 646 nM.

(Values after patent publication US11319322B2, “Substituted aryl ether compound, preparation method thereof, pharmaceutical composition and use thereof” (Xiamen University, priority 2017, dated 2022).)
